Reference: US20110014164A1, “EFFICIENT INDUCTION OF PLURIPOTENT STEM CELLS USING SMALL MOLECULE COMPOUNDS” (PRESIDENT AND FELLOWS OF HARVARD COLLEGE, priority 2008, published 2011)

Key:
[1] = system: primary human fibroblasts, BJ and NHDF, infected by Oct4, Sox2 and Klf4; experiment: iPS colony induction in 3-factor (Oct4, Sox2, Klf4) infected human fibroblasts; format: cell-based
Text: AP^+ colonies were compared for 3-factor (Oct4, Sox2 and Klf4) infected BJ fibroblasts with or without VPA treatment at 25 days post-infection.
Human fibroblasts were first infected by Moloney murine leukemia retroviruses expressing the Oct4, Sox2 and Klf4 genes, and treated with VPA for 1 to 2 weeks.
Human fibroblasts were infected by different transcription factor combinations, and replated in fibroblast medium typically at 2×10^5 cells per well in gelatin-coated 6-well plates at 0 day post-infection. Cells were cultured in hES cell media starting from 1 day post-infection.

[2] = system: human BJ and NHDF cells infected by Oct4 and Sox2; experiment: iPS induction in 2-factor (Oct4, Sox2) infected human fibroblasts; format: cell-based; conditions: both with VPA treatment
Text: b. In the published reprogramming protocol, infected human fibroblasts are typically cultured in fibroblast media first, then reseeded on feeders and switched to hES cell media about a week post-infection. In the modified protocol, human fibroblasts were replated immediately after infection, treated with VPA in hES media, and subsequently cultured in hES media.
c. The efficiency of iPS colony induction by 3 factors (Oct4, Sox2 and Klf4) and 2 factors (Oct4 and Sox2) with VPA treatment are plotted. Each dot represents one experiment; each bar represents the average for each condition.
Encouraged by the more efficient 3-factor reprogramming with VPA treatment, we explored the possibility of eliminating some of the transcription factors. The modified induction method with VPA treatment (FIG. 9b) was applied to human BJ and NHDF cells infected by different 2-factor combinations, and AP^+ iPS colonies were identified about 1 month post-infection in fibroblasts infected by Oct4 and Sox2. Karyotypically normal iPS cell lines (Table 2) were established from 2-factor infected human fibroblasts. On average, between 1 and 5 iPS lines were successfully established out of every 100,000 BJ or NHDF cells infected by Oct4 and Sox2 (FIG. 9c). […] The efficiency of reprogramming by 2 factors, however, was ˜100 fold lower than that by 3 factors both with VPA treatment. […]

uninfected MEFs [3] = experiment: Microarray analysis on uninfected MEFs treated with VPA; format: cell-based, mouse
Text: (a) Genes that were specifically expressed in ES cells and MEFs (>10 fold difference) were selected, and scatter plot was generated to visualize the effect of VPA treatment on the expression of these genes. Each blue dots represent one gene, and the position of the blue dot indicate the relative expression level, the average signal (AVE_signal), in MEFs treated with VPA versus untreated. The thick red line indicates identical expression levels. The two adjacent red lines indicate positions where VPA treatment causes a two fold up or down-regulation of the gene expression.
(b) Examples of the relative levels of expression of ES cell-specific transcripts (Rex3 and Zfp7) in ES cells, iPS-m cells, untreated MEFs and MEFs treated with VPA.
(c) Examples of the relative levels of expression of MEF-specific transcripts (Aspn and Meox2) in ES cells, iPS-m cells, untreated MEFs and MEFs treated with VPA.
(§1) Therefore, VPA partially reprograms MEFs towards more ES cell-like.
For transcriptional analysis, total RNA was isolated from cells cultured in 6 well dishes using RNeasy Mini Kit and QlAshredder from Qiagen. Biotinylated antisense RNA were amplified using Illumina Total Prep RNA amplification Kit from Ambion, hybridized to Illumina Whole-Genome Expression BeadChips (MouseRef-8) and analyzed by Illumina Beadstation 500. All samples were prepared in two to three biological repeats. Data were analyzed using the Beadstudio software provided by Illumina.

uninfected MEFs [4] = experiment: Oct4-GFP induction in uninfected MEFs; format: cell-based, mouse; conditions: VPA treatment alone on uninfected MEFs
Text: as §1

[5] = Effect of VPA treatment on cell cycles; format: cell-based
Text: as §1

[6] = uninfected MEFs, 2 mM VPA for a week

Structure (SMILES): CCCC(CCC)C(=O)O [VPA, valproic acid]
- promotion of the efficiency of iPS colony formation ([1]; human skin cells infected with the three factors): ~30 fold
- improvement over the first report on reprogramming by the same 3-factor combination (<0.001%) ([1]; optimized induction protocol together with VPA treatment): 1000 fold
- efficiency of reprogramming by 2 factors lower than by 3 factors [2]: ~100 fold
- expression of ES cell-specific genes Rex3 and Zfp7 (uninfected MEFs [3]; MEFs treated with VPA versus untreated MEFs): up-regulated by more than twenty fold
- expression of MEF-specific genes Aspn and Meox2 (uninfected MEFs [3]; VPA treated MEFs versus untreated MEFs): down-regulated by more than twenty fold
- effect on endogenous c-Myc gene expression (uninfected MEFs [3]; [6]): did not have a significant effect
- share of the 214 genes down-regulated >10 fold in ES cells that are down-regulated by more than two fold (uninfected MEFs [3]; [6]): 55%
- share of the 214 genes down-regulated >10 fold in ES cells that are up-regulated by more than two fold (uninfected MEFs [3]; [6]): 6.2%
- share of the 968 genes up-regulated >ten fold in ES cells that are down-regulated by more than two fold (uninfected MEFs [3]; [6]): 4.5%
- share of the 968 genes up-regulated >ten fold in ES cells that are up-regulated by more than two fold (uninfected MEFs [3]; [6]): 66%
- induction of Oct4-GFP positive cells (uninfected MEFs [4]): does not induce Oct4-GFP positive cells
- effect on cell cycles [5]: does not accelerate cell cycles
